Data from patent EP0775487A1, “TRIAZINE DERIVATIVE AND MEDICINE” (NIPPON SHINYAKU COMPANY, LIMITED, priority 1994, dated 1996).
Where two headings read alike, the source gives them in different places. Marks after values point to notes of the source that are not given here.

How the values were obtained:
GST-P-positive lesions = test: Inhibitory effect on hepatic chemooncogenesis in rats (DEN/AAF/hepatectomy precancerous lesion model, GST-P immunostaining); type: in vivo, F344 rats; details: for GST-P^+ area (mm^2/cm^2) mean±S.E. / GST-P^+ foci (N/cm^2) mean±S.E.: 0.01% in chow from week 2 to final day (4-week experiment); for GST-P^+ area (mm^2/cm^2) inhibition (%) / GST-P^+ foci (N/cm^2) inhibition (%): 0.01% in chow, versus own control group
Procedure: Method: Five-week-old male F344 rats (Slc), a precancerous lesion model was constructed using the following protocol in accordance with the method of Solt and Faber (Nature, 263, 702-703, 1976). [formula] • ↑ : DEN 200 mg/kg, i.p. • : 70% hepatectomy • : 0.02% AAF • : Diet or water • ←→ : Drug administration period
Thus, the duration of the experiment being set at 4 weeks, 200 mg/kg of diethylnitrosoamine (hereinafter referred to briefly as DEN) was first administered intraperitoneally. Beginning week 2, drinking water containing 0.02% of 2-acetylaminofluorene (hereinafter referred to briefly as AAF) was given ad libitum. At the beginning of week 3, 70% hepatectomy was performed. The test drug was mixed into the animal chow (F-2, Funabashi Farm) at the concentration of 0.01% and administered from week 2 through the final day of the experiment. The compound of Example 1 was used as the test drug and 2,4-diamino-6-(2,5-dichlorophenyl)-1,3,5-triazine as the reference compound.
On the final day of the experiment, all the animals were sacrificed by cervical dislocation under ether anaesthesia. Immediately a portion of the liver was excised, quick-frozen in dry ice-acetone, and stored until used. From the liver, 8 µm-thick frozen sections were prepared and using Vectastain ABC Kit (Funakoshi Yakuhin), immunostained by the ABC method (an enzyme-labeled antibody method) using anti-glutathione-S-transferase placental form (hereinafter referred to briefly as GST-P) antibody as the primary antibody. Thus, sections were returned to room temperature under anhydrous conditions and immersed in 10 mM phosphate-buffered saline (hereinafter referred to briefly as PBS) at pH 7.2 for 15 minutes. Then, goat normal serum and the primary antibody (a 500-fold dilution, 20 µl) were applied to the section and allowed to react overnight. After the reaction, the section was washed with PBS. Then, anti-rabbit secondary antibody was applied and the reaction was carried out for 30 minutes. After washing with PBS, avidin-biotin complex was applied and allowed to react for 30 minutes. The section was washed with PBS and treated with 0.1% diaminobenzidine (DAB) containing 0.02% of hydrogen peroxide for color development, dehydrated, and sealed.
The number of GST-P-positive lesions per cm^2 liver tissue section was counted under an optical microscope and the area was measured with an image analyzer (SPICCA-II, Japan Avionics). The significance testing of mean values was made by Student's t-test and the result was evaluated at the 5% leval of significance.

[1] = Effect on body weight gain; type: in vivo; details: 1,000 mg/kg administered repeatedly (daily), rats
Procedure: The compound of Example 1 was administered to rats daily to investigate its effect on body weight gain.

[2] = test system: BCG-LPS-induced fulminant hepatitis; test: Inhibitory effect on BCG-LPS-induced fulminant hepatitis in mice (antihepatitis effect); type: in vivo, BALB/C mice; details: for Number of deaths/number of animals/used: 50 mg/kg orally 1 hour before LPS i.v., deaths at 48 hours, control mortality 80-100%; for inhibition at 50 mg/kg: Mus musculus, po, 50 mg/kg orally, plasma transaminase at hour 4 after LPS
Procedure: The antihepatitis action of the compound of the invention could be confirmed by the following test in mice. This test is the commonest animal test for evaluating the antihepatitis effect of drugs. It is known that the antihepatitis effect evaluated by this test method is highly correlated with the clinical effect in man (Kondo, Y. et al. Chem. Pharm. Bull. 38, 2887-2889, 1990). Method: Six-week-old male BALB/C mice were intravenously dosed with 1 mg of BCG and after 2 weeks, 50 mg/kg of the test drug was administered orally. Then, after 1 hour, 2.5 µg of lipopolysaccharide (LPS) was injected intravenously to induce hepatitis. To find the LPS-associated mortality, the percentage of deaths at 48 hours was calculated. The mortality in the control group was 80-100%. […] However, for reference's sake, blood was drawn from the orbital vein at hour 4 and the plasma transaminase (GOT, GPT) concentrations were determined. As a reference compound, 2,4-diamino-6-(2,5-dichlorophenyl)-1,3,5-triazine was used.

Acute toxicity = type: in vivo, Rats (SD strain); details: 1 g/kg orally by gastric gavage, fasted rats, groups of 5
Procedure: Rats of either sex (SD strain, […]) were used in groups of 5. The animals were deprived of food from the previous day (16-18 hours before) and 1 g/kg of the compound of Example 1 was administered orally by gastric gavage. Then, deaths during the subsequent one-week period were recorded.

## Nc1nc(-c2cc(Cl)ccc2Cl)nc(N(CCO)CCO)n1 [Example 1, 2-amino-4-[N,N-bis(2-hydroxyethyl)amino]-6-(2,5-dichlorophenyl)-1,3,5-triazine]
GST-P-positive lesions
  GST-P^+ area (mm^2/cm^2) mean±S.E.: 0.8± 0.2 mm^2/cm^2
  GST-P^+ foci (N/cm^2) mean±S.E.: 41.5± 5.2 N/cm^2
  GST-P^+ area (mm^2/cm^2) inhibition (%): 48.6%
  GST-P^+ foci (N/cm^2) inhibition (%): 28.9%
[1]
  effect on body weight gain: did not affect body weight gain
[2]
  Number of deaths/number of animals/used: 2/10**
[2]; read-out: % Inhibition GOT
  inhibition at 50 mg/kg: 37%
[2]; read-out: % Inhibition GPT
  inhibition at 50 mg/kg: 17%
Acute toxicity
  deaths during the subsequent one-week period: no death was found at all

## CNc1nc(N)nc(-c2cc(Cl)ccc2Cl)n1 [Example 2, 2-Amino-4-(2,5-dichlorophenyl)-6-methylamino-1,3,5-triazine]
[2]
  Number of deaths/number of animals/used: 0/10**
[2]; read-out: % Inhibition GOT
  inhibition at 50 mg/kg: 46%
[2]; read-out: % Inhibition GPT
  inhibition at 50 mg/kg: 33%

## CN(C)c1nc(N)nc(-c2cc(Cl)ccc2Cl)n1 [Example 3, 2-Amino-4-(2,5-dichlorophenyl)-6-dimethylamino-1,3,5-triazine]
[2]
  Number of deaths/number of animals/used: 0/10**
[2]; read-out: % Inhibition GOT
  inhibition at 50 mg/kg: 37%
[2]; read-out: % Inhibition GPT
  inhibition at 50 mg/kg: 38%

## CN(CCO)c1nc(N)nc(-c2cc(Cl)ccc2Cl)n1 [Example 5, 2-Amino-4-(2,5-dichlorophenyl)-6-[N-methyl-N-(2-hydroxyethyl)amino]-1,3,5-triazine]
[2]
  Number of deaths/number of animals/used: 0/10**
[2]; read-out: % Inhibition GOT
  inhibition at 50 mg/kg: 43%
[2]; read-out: % Inhibition GPT
  inhibition at 50 mg/kg: 18%

## COCCNc1nc(N)nc(-c2cc(Cl)ccc2Cl)n1 [Example 6, 2-Amino-4-(2,5-dichlorophenyl)-6-(2-methoxyethylamino)-1,3,5-triazine]
[2]
  Number of deaths/number of animals/used: 2/10**
[2]; read-out: % Inhibition GOT
  inhibition at 50 mg/kg: 34%
[2]; read-out: % Inhibition GPT
  inhibition at 50 mg/kg: 29%

## Cc1ccc(OCCN2CCN(c3nc(N)nc(-c4cc(Cl)ccc4Cl)n3)CC2)cc1 [Example 21, 2-Amino-4-(2,5-dichlorophenyl)-6-[4-[2-(4-methylphenoxy)ethyl]piperazin-1-yl]-1,3,5-triazine]
[2]
  Number of deaths/number of animals/used: 0/10**
[2]; read-out: % Inhibition GOT
  inhibition at 50 mg/kg: 29%
[2]; read-out: % Inhibition GPT
  inhibition at 50 mg/kg: 10%

## Nc1nc(-c2cc(Cl)ccc2Cl)nc(N2CCCC2)n1 [Example 30, 2-Amino-4-(2,5-dichlorophenyl)-6-pyrrolidino-1,3,5-triazine]
[2]
  Number of deaths/number of animals/used: 0/18**
[2]; read-out: % Inhibition GOT
  inhibition at 50 mg/kg: 45%
[2]; read-out: % Inhibition GPT
  inhibition at 50 mg/kg: 31%

## Nc1nc(-c2cc(Cl)ccc2Cl)nc(N2CCC(O)C2)n1.O=C(O)/C=C\C(=O)O (stereo not shown) [Example 31, 2-Amino-4-(2,5-dichlorophenyl)-6-(3-hydroxy-1-pyrrolidinyl)-1,3,5-triazine maleate]
[2]
  Number of deaths/number of animals/used: 1/18**
[2]; read-out: % Inhibition GOT
  inhibition at 50 mg/kg: 47%
[2]; read-out: % Inhibition GPT
  inhibition at 50 mg/kg: 34%

## Cl.Nc1nc(-c2cc(Cl)ccc2Cl)nc(N2CCC[C@H]2CO)n1 [Example 32, (S)-2-amino-4-(2,5-dichlorophenyl)-6-(2-hydroxymethyl-1-pyrrolidinyl)-1,3,5-triazine hydrochloride]
[2]
  Number of deaths/number of animals/used: 0/18**
[2]; read-out: % Inhibition GOT
  inhibition at 50 mg/kg: 62%
[2]; read-out: % Inhibition GPT
  inhibition at 50 mg/kg: 60%

## Cl.Nc1nc(-c2cc(Cl)ccc2Cl)nc(N2CCC[C@@H]2CO)n1 [Example 33, (R)-2-amino-4-(2,5-dichlorophenyl)-6-(2-hydroxymethyl-1-pyrrolidinyl)-1,3,5-triazine hydrochloride]
[2]
  Number of deaths/number of animals/used: 0/18**
[2]; read-out: % Inhibition GOT
  inhibition at 50 mg/kg: 39%
[2]; read-out: % Inhibition GPT
  inhibition at 50 mg/kg: 41%

## Nc1nc(-c2cc(Cl)ccc2Cl)nc(N2CCCC(O)C2)n1 (stereo not shown) [Example 37, 2-Amino-4-(2,5-dichlorophenyl)-6-(3-hydroxy-1-piperidinyl)-1,3,5-triazine]
[2]
  Number of deaths/number of animals/used: 0/18**
[2]; read-out: % Inhibition GOT
  inhibition at 50 mg/kg: 43%
[2]; read-out: % Inhibition GPT
  inhibition at 50 mg/kg: 38%

## Nc1nc(-c2cc(Cl)ccc2Cl)nc(N2CCC(=O)CC2)n1 [Example 56, 2-Amino-4-(2,5-dichlorophenyl)-6-(4-oxo-1-piperidinyl)-1,3,5-triazine]
[2]
  Number of deaths/number of animals/used: 0/15**
[2]; read-out: % Inhibition GOT
  inhibition at 50 mg/kg: 38%
[2]; read-out: % Inhibition GPT
  inhibition at 50 mg/kg: 37%

## Cl.Cl.NCC1CCN(c2nc(N)nc(-c3cc(Cl)ccc3Cl)n2)C1 (stereo not shown) [Example 62, 2-Amino-4-(2,5-dichlorophenyl)-6-(3-aminomethyl-1-pyrrolidinyl)-1,3,5-triazine dihydrochloride]
[2]
  Number of deaths/number of animals/used: 0/15**
[2]; read-out: % Inhibition GOT
  inhibition at 50 mg/kg: 29%
[2]; read-out: % Inhibition GPT
  inhibition at 50 mg/kg: 38%

## Nc1nc(N)nc(-c2cc(Cl)ccc2Cl)n1 [Reference Compound, 2,4-diamino-6-(2,5-dichlorophenyl)-1,3,5-triazine, reference compound]
GST-P-positive lesions
  GST-P^+ area (mm^2/cm^2) mean±S.E.: 3.6±0.7 mm^2/cm^2
  GST-P^+ foci (N/cm^2) mean±S.E.: 67.9± 8.7 N/cm^2
  GST-P^+ area (mm^2/cm^2) inhibition (%): 7.7%
  GST-P^+ foci (N/cm^2) inhibition (%): 9.7%
[2]
  Number of deaths/number of animals/used: 0/10*
[2]; read-out: % Inhibition GOT
  inhibition at 50 mg/kg: 21%
[2]; read-out: % Inhibition GPT
  inhibition at 50 mg/kg: -6%

## Nc1nc(-c2cc(Cl)ccc2Cl)nc(N2CCOCC2)n1 [Reference Example 5, 2-Amino-4-(2,5-dichlorophenyl)-6-morpholino-1,3,5-triazine]
[2]
  Number of deaths/number of animals/used: 0/18**
[2]; read-out: % Inhibition GOT
  inhibition at 50 mg/kg: 58%
[2]; read-out: % Inhibition GPT
  inhibition at 50 mg/kg: 45%
